Patent US10577618B2, “Class of glyphosate resistance genes” (Dow AgroSciences LLC, priority 2012, dated 2020)

What was measured:
[1] = tested on: T1 wheat; experiment: Detailed phenotypic screen of T1 wheat events at different glyphosate dose rates (Tables 41, 42); format: in vivo, Triticum aestivum; conditions: untransformed donor wheat plants
Procedure: Four replicates of 12 T1 seeds per selected event and eight replicates (12 seeds each) of the untransformed donor wheat line Bobwhite MPB26RH were sown in 85 mm pots and grown to the 2-leaf stage under well-watered conditions at 25° C. with supplementary lighting providing a 12 hour photoperiod. The pots were placed in a randomised design to allow environmental effects to be removed during data analysis. At the 2-leaf stage, plant length and number of leaves was recorded for each plant before spraying with glyphosate. The first, second, third and fourth replicate of T1 plants for each selected event and the untransformed donor wheat line were sprayed at a dose rate of 420, 840, 1680 and 3360 g ai/ha, respectively. The fifth, sixth, seventh and eighth replicate of untransformed donor wheat line (total 48 plants) were not sprayed. At 7, 14 and 21 days after spraying, the plants were scored for plant length, number of leaves and phenotypic response to glyphosate using the scoring scale in Table 37. Any morphological abnormalities were also recorded. For scoring, the scorer was “blinded” with regard to plant genotype and spray dose rate to prevent scoring bias. Plants with delayed germination and poor establishment (criteria: plant length <6 cm) at the pre-spray scoring were excluded from subsequent analyses.
This differentiation was maximal at 21 days and was observed across all glyphosate dose rates. Table 41. To assess the tolerance of the transgenic events to glyphosate at each spray dose rate, null T1 plants (i.e. plants not carrying the transgene) were excluded from subsequent analyses. T1 plants with a response score of less than three at 21 days after spraying were considered to have the null genotype. […]

[2] = tested on: T0 corn plants; experiment: Post-emergence glyphosate tolerance of T0 dgt-28 corn (Table 19); format: in vivo, Zea mays
Procedure: Zea mays dgt-28 transformation events (T0) were allowed to acclimate in the greenhouse and were grown until plants had transitioned from tissue culture to greenhouse growing conditions (i.e., 2-4 new, normal looking leaves had emerged from the whorl). Plants were grown at 27° C. under 16 hour light:8 hour dark conditions in the greenhouse. The plants were then treated with commercial formulations of DURANGO DMA™ (containing the herbicide glyphosate) with the addition of 2% w/v ammonium-sulfate. Herbicide applications were made with a track sprayer at a spray volume of 187 L/ha, 50-cm spray height. T0 plants were sprayed with a range of glyphosate from 280-4480 g ae/ha glyphosate, which is capable of significant injury to untransformed corn lines. A lethal dose is defined as the rate that causes >95% injury to the B104 inbred.
T0 events of dgt-28 linked with TraP4, TraP5, TraP8 and TraP23 were generated by Agrobacterium transformation and were allowed to acclimate under controlled growth chamber conditions until 2-4 new, normal looking leaves had emerged from the whorl. Plants were assigned individual identification numbers and sampled for copy number analyses of both dgt-28 and aad-1. Based on copy number analyses, plants were selected for protein expression analyses. […]

[3] = Replicate 1, 420 g ai/ha, 10 plants at pre-spray scoring
[4] = Replicate 2, 840 g ai/ha, 10 plants at pre-spray scoring
[5] = Replicate 3, 1680 g ai/ha, 11 plants at pre-spray scoring
[6] = Replicate 4, 3360 g ai/ha, 10 plants at pre-spray scoring

`O=C(O)CNCP(=O)(O)O` [glyphosate, N-(phosphonomethyl) glycine] was tested. Which “No. surviving plants at 14 days after spraying” value (“No. surviving plants at 14 days” for short) [1, 3] did it give?
The value was 0.

And the “No. surviving plants at 21 days after spraying” value (from here on “No. surviving plants at 21 days”) [1, 3]?
The value was 0.

What about the “No. surviving plants at 14 days” value [1, 4] of the same compound?
Its value is 3.

And the “No. surviving plants at 21 days” value [1, 4]?
The value was 0.

What about the “No. surviving plants at 14 days” value [1, 5] of the same compound?
Its value is 0.

And the “No. surviving plants at 21 days” value [1, 5]?
The value was 0.

What about the “No. surviving plants at 14 days” value [1, 6] of the same compound?
Its value is 1.

And the “No. surviving plants at 21 days” value [1, 6]?
The value was 0.

And the “non-transformed plants controlled with glyphosate at concentrations as low as” value [2]?
The value was at least 280 g ae/ha.
